This note sets out measurements from patent publication US8410161B2, “Thioxanthone ring system derivatives” (National Defense Medical Center, priority 2010, dated 2013).

What all share (type): cell-based
Data set [1] concerns A control cell lines. Briefly: MTT assay, A control cell lines (lung cancer cell). The text has this: Please refer to Table 1 and FIGS. 4A-4C. According to a MTT assay (Table 1), various cell viabilities of the A control cell lines can be obtained and illustrated in FIG. 4A while the compounds No. 2˜30 are used to treat A control cell lines, wherein A control cell lines are lung cancer cell.

A short description of data set [2]: MTT assay, HEL299 fibroblast. The note with it: human. The source says:
(§1) Please refer to FIG. 4C, various cell viabilities of the HEL299 cell lines can be obtained through the MTT assay while the compounds No. 1˜30 are used to treat HEL299 cell lines, wherein HEL299 cell lines are fibroblast.
Background: Tetrazolium dyes change colour on reduction, which living cells bring about.

Data set [3] deals with HEL299 fibroblast. Briefly: MTT assay, HEL299 fibroblast.
Description: as §1

Data set [4] relates to A3 cell lines. Briefly: MTT assay, A3 cell lines (lung cancer stem cell). The text has this: Please to FIG. 4B, various cell viabilities of the A3 cell lines can be obtained through the MTT assay and illustrated in FIG. 4B while the compounds No. 1˜30 are used to treat A3 cell lines, wherein A3 cell lines are lung cancer stem cell.

As usually defined, the viability is a read-out of living cells in per cent, often relative to untreated cells. On to `CC(C)Sc1ccc2c(=O)c3ccccc3sc2c1Cl` [No. 4, 4-Chloro-3-(isopropylthio)-9H-thioxanthen-9-one], for which, in data set [1], the “cell viabilities of A control cell lines (MTT assay)” value was found to be 91.1 ± 2.02%. Also, in data set [2], the viability was found to be 103%. Also, the “cytotoxicity effect on the normal fibroblast (in words)” value in data set [3] is “without the cytotoxicity effect”. Besides, in data set [4], the “cell viabilities of A3 cell lines (MTT assay)” value came to 56.1%. Besides, in data set [4] (summary of MTT cell viabilities), the “inhibition effect on A3 cell line (in words)” value is “inhibition effect”.
